Consider 7 molecules from PMC5100569 (Nucleic Acids Research, 2016).

Positions count from the first letter of the chain named.

The target of data set [1] is T1, saCodY (Staphylococcus aureus, UniProt A7X1N2).
T1 sequence (A7X1N2 1-257): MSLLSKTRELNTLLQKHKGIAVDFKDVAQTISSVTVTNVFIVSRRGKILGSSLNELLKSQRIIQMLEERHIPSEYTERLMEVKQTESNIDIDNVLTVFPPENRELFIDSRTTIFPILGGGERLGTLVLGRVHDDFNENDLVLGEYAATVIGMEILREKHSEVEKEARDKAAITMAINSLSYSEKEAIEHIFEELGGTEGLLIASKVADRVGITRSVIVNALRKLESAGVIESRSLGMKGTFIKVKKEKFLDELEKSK
As to the kind of experiment: surface plasmon resonance. The data set is classed as binding. On the technique in general: In SPR one partner is held on a chip, and binding of the other changes the refractive index at the surface.

Data set [2] has as its target T2, bcCodY (Bacillus cereus, UniProt Q819X8).
T2 sequence (Q819X8 1-259): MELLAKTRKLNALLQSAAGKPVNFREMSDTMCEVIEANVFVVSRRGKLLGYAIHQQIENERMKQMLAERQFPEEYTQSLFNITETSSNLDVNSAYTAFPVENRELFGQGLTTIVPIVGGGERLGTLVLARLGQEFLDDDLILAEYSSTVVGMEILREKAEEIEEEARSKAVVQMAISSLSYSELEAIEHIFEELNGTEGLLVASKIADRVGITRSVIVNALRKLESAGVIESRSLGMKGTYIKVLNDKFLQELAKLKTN
As to the kind of experiment: size-exclusion chromatography, change of oligomeric state. The data set is classed as binding. The following applies: 1 mM GTP, pH 8.0, no Ile.

Data set [3] deals with saCodY (Staphylococcus aureus, UniProt A7X1N2, E153A). As to the kind of experiment: biochemical.
Data set [4] concerns the target saCodY (Staphylococcus aureus, UniProt A7X1N2, H70A/K158A/K47A/R45A/S43A). As to the kind of experiment: biochemical.
Data set [5] concerns the molecule itself. As to the kind of experiment: SEC. Background: Size exclusion chromatography separates by hydrodynamic size, large species first.
The target of data set [6] is T3, saCodY E153A (Staphylococcus aureus, UniProt A7X1N2 1-257, E153A).
T3 sequence: T1 sequence (A7X1N2 1-257) with E153A
As to the kind of experiment: EMSA. (Mobility shift assays separate free from complexed probe on a gel.)

The target of data set [7] is T4, saCodY 3P5A (Staphylococcus aureus, UniProt A7X1N2 1-257, S43A;R45A;K47A;H70A;K158A).
T4 sequence: T1 sequence (A7X1N2 1-257) with S43A, R45A, K47A, H70A, K158A
As to the kind of experiment: EMSA.

Data set [8] deals with the molecule itself. As to the kind of experiment: crystal structure.

With `Nc1nc2c(ncn2[C@@H]2O[C@H](COP(=O)(O)OP(=O)(O)OP(=O)(O)O)[C@@H](O)[C@H]2O)c(=O)[nH]1` [GTP], the Kd (as a rule, the concentration at which binding is half-saturated) in data set [1] came out at 2.26 mM; in data set [3], 28 mM; in data set [4], 35 mM. For the same molecule, the “size-exclusion chromatography, change of oligomeric state” value in data set [2] was “after incubation of saCodY and bcCodY with GTP, the proteins eluted at much smaller sizes”.

For `Nc1nc2c(ncn2[C@@H]2O[C@H](COP(=O)(O)O)[C@@H](O)[C@H]2O)c(=O)[nH]1` [GMP], binding in data set [1] was put at a Kd of 20 mM.

The molecule `Nc1nc2c(ncn2[C@@H]2O[C@H](COP(=O)(O)OP(=O)(O)O)[C@@H](O)[C@H]2O)c(=O)[nH]1` [GDP] displayed a Kd in data set [1] of 17 mM.

`Nc1ncnc2c1ncn2[C@@H]1O[C@H](COP(=O)(O)OP(=O)(O)OP(=O)(O)O)[C@@H](O)[C@H]1O` [ATP] came in with a Kd in data set [1] of 19 mM.

B1: CodY from Bacillus cereus (bcCodY), wild type (natural protein, UniProt Q819X8 1-259, looked up)
chain: T2 sequence (Q819X8 1-259)
For B1, in data set [5], the stoichiometry N (as a rule, a count of units in the complex or per binding partner) was found to be 4.

B2: ilvB promoter 45-mer (dsDNA)
DNA 1: CAGGTGGCGTCATGCAAGTCCCTGAGAATTTAATTTAATTTATTT
DNA 2: AAATAAATTAAATTAAATTCTCAGGGACTTGCATGACGCCACCTC
For B2, the binding signal turned out to be 1.7 fold Kd vs WT without GTP in data set [6] and 3 fold Kd vs WT without GTP in data set [7].

B3: CodY from Staphylococcus aureus (saCodY), wild type (natural protein, UniProt A7X1N2 1-257, looked up)
chain: T1 sequence (A7X1N2 1-257)
For the molecule B3, the “stoichiometry N” value in data set [5] stood at 4; in data set [8], 2.
